Measurements reported in patent publication US20200392158A1, “INHIBITORS OF LEUCINE RICH REPEAT KINASE 2” (GLAXOSMITHKLINE INTELLECTUAL PROPERTY DEVELOPMENT LIMITED, priority 2017, published 2020).

target: T1, LRRK2 kinase in SH-SY5Y cells over-expressing recombinant full length LRRK2 (Homo sapiens, UniProt Q5S007); assay: Recombinant cellular LRRK2 AlphaScreen assay (LRRK2 Ser935 phosphorylation); type: cell-based; settings: 60 min
T1 construct: A BacMam virus expressing full length recombinant LRRK2 was purchased from Invitrogen; host or cells: SH-SY5Y human neuroblastoma cells transduced with BacMam LRRK2 virus
T1 sequence (Q5S007 whole entry): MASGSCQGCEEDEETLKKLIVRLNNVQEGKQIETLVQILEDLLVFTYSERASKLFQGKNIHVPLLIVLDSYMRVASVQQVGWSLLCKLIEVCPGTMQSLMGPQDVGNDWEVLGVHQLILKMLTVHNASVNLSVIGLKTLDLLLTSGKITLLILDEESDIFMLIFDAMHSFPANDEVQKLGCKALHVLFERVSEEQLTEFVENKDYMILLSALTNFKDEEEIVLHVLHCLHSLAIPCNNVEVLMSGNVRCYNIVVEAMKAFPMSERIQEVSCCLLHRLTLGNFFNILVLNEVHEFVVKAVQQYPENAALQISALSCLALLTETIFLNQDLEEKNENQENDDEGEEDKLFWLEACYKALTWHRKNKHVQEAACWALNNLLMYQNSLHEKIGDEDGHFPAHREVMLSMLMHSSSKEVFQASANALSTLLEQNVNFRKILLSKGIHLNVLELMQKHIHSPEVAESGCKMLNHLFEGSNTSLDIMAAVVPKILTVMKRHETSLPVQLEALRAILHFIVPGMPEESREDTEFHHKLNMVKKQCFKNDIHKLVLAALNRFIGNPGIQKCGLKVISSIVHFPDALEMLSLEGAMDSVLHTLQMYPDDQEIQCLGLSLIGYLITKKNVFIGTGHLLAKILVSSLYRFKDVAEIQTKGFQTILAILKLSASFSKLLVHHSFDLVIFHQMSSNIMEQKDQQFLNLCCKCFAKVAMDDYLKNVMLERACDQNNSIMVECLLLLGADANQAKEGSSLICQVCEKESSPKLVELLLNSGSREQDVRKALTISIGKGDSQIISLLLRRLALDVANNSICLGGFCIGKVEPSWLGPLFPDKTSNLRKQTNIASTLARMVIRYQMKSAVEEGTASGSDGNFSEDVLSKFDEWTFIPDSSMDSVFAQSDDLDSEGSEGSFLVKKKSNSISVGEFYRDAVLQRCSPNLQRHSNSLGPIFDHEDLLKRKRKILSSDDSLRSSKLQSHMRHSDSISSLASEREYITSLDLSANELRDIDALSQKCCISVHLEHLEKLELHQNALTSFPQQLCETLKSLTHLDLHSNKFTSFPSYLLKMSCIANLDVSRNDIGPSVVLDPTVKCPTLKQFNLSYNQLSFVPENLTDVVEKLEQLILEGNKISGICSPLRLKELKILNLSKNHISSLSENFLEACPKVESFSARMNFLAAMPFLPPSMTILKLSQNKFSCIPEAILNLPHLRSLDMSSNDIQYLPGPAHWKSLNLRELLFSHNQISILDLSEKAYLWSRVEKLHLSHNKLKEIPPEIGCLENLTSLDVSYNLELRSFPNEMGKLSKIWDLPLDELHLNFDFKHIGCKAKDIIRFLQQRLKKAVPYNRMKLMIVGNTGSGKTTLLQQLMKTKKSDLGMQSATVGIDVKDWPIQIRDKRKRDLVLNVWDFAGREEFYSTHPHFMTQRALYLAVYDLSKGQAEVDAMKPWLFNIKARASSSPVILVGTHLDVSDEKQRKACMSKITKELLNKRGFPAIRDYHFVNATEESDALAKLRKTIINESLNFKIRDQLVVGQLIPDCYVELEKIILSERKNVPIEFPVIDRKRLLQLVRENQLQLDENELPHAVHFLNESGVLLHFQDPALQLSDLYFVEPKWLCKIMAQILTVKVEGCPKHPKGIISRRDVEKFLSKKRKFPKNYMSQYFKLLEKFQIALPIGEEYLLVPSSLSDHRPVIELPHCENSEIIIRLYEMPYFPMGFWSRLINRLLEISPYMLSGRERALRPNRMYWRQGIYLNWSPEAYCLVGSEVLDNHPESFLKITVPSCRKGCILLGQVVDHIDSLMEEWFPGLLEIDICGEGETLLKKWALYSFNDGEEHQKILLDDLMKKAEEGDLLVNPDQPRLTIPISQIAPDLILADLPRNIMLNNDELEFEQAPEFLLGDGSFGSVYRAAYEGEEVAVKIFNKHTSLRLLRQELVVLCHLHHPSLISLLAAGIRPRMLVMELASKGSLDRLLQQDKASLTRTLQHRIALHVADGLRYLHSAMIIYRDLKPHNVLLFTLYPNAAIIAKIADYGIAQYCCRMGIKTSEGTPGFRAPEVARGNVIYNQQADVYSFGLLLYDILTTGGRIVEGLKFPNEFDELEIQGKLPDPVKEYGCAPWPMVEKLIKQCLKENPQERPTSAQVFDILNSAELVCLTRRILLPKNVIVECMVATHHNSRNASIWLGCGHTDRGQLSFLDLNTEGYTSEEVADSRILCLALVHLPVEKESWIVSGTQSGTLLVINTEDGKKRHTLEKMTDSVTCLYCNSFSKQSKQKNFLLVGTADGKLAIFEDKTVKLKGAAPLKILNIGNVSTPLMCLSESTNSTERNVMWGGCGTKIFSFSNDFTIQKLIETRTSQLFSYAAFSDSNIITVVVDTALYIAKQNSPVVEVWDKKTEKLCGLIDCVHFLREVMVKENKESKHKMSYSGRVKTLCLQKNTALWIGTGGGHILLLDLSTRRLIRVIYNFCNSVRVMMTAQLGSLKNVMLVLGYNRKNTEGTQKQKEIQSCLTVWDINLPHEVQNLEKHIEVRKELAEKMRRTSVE
From the text: b. Recombinant Cellular LRRK2 AlphaScreen Assay
To determine the activity of compounds against LRRK2 kinase in cells, the observed LRRK2 kinase-dependent modulation of LRRK2 Ser 935 phosphorylation (Dzamko et al., 2010, Biochem. J. 430: 405-413) was utilized to develop a quantitative 384 well plate-based immunoassay of LRRK2 Ser935 phosphorylation in the human neuroblastoma cell line SH-SY5Y, engineered to over-express recombinant full length LRRK2 protein.
A BacMam virus expressing full length recombinant LRRK2 was purchased from Invitrogen and amplified by inoculation of SF-9 cells at MOI 0.3 for 4-5 days in Sf-900 III SFM medium supplemented with 3% fetal bovine serum. Infected cell cultures were then centrifuged at 2000 g for 20 minutes, viral supernatant titer determined by anti-gp64 plaque assay and stored at 4° C.
Affinity-purified anti-phospho LRRK2 Ser935 sheep polyclonal antibody (Dzamko et al., 2010, Biochem. J. 430: 405-413) was biotinylated by standard methods (PerkinElmer). Anti-LRRK2 rabbit polyclonal antibody was purchased from Novus Biologicals. AlphaScreen Protein A IgG Kit (including acceptor and donor beads) was purchased from Perkin Elmer.
SH-SY5Y cells were grown in DMEM/F12 medium with 10% dialysed fetal bovine serum and harvested by treatment with 0.5% trypsin-EDTA for 5 minutes at 37° C. followed by centrifugation at 1000 rpm for 4 minutes. The cell pellet was resuspended in Opti-MEM reduced serum media (Invitrogen) at 200,000 cells/ml and mixed with the BacMam LRRK2 virus at M01=50. 50 μl cell solutions were then dispensed to each well of a 384-well plate and incubated at 37° C., 5% CO2 for 24 hours.
Compounds were prepared at 10× final assay concentration as 11 point 1 in 4 serial I dilutions in Opti-MEM reduced serum medium (Invitrogen 31985070) containing 1% DMSO. On the day of assay, 5.5 μl of the compound solutions were transferred from the compound plate to the cell assay plate to achieve a top final assay concentration of 10 uM. DMSO (0.1% final assay concentration) was added to column 6 and 2-(benzyloxy)-5-methyl-4-(1-methyl-1H-pyrazol-4-yl)-N-(pyridin-3-yl)benzamide (2 μM final assay concentration) was added to column 18 to serve as 0% and 100% inhibition controls, respectively.
Cells were incubated at 37° C., 5% CO2 for 60 minutes. The medium was then removed and cells lysed by addition of 20 μl of cell lysis buffer (Cell Signaling Technology) and incubation at 4° C. for 20 minutes. 10 μl of antibody/acceptor bead mix [(1/1000 biotinylated-pS935 LRRK2 antibody, 1/1000 total-LRRK2 antibody, 1/100 Acceptor beads in AlphaScreen detection buffer (25 mM Hepes (pH 7.4), 0.5% Triton X-100, 1 mg/ml Dextran 500 and 0.1% BSA)] was then added to each well and plates incubated for 2 hours at ambient temperature in the dark. 10 μl of donor beads solution (1/33.3 donor beads in AlphaScreen detection buffer) was then added to each well. Following incubation for a further 2 hours at ambient temperature in the dark, plates were read on an EnVision™ plate reader at emission 520-620 nm with excitation 680 nm. Dose response curve data was based on a sigmoidal dose-response model.

IC50, ≤ 0.1 µM:
Cc1c2c(nn1C1CCOCC1)OCC(F)CNc1nc(ncc1Cl)N2 (stereo not drawn) [E16, 14-Chloro-10-fluoro-4-methyl-5-(oxan-4-yl)-8-oxa-2,5,6,12,16,17-hexaazatricyclo [11.3.1.0^3,7]heptadeca-1(16),3,6,13(17),14-pentaene]
N#Cc1cnc2nc1NCCCOc1nn(C3CCOCC3(F)F)c(Cl)c1N2 (stereo not drawn) [E438, 4-Chloro-5-(3,3-difluorooxan-4-yl)-8-oxa-2,5,6,12,16,17-hexaazatricyclo[11.3.1.0^3,7]heptadeca-1(16),3,6,13(17),14-pentaene-14-carbonitrile]
Cc1c2c(nn1C1CCOC(C)C1)OCCCNc1nc(ncc1Cl)N2 (single isomer, unassigned) [E202, 14-Chloro-4-methyl-5-(2-methyloxan-4-yl)-8-oxa-2,5,6,12,16,17-hexaazatricyclo[11.3.1.0^3,7]heptadeca-1(16),3,6,13(17),14-pentaene]
Cc1c2c(nn1C1CCOCC1(F)F)OCC[C@@H](C)Nc1nc(ncc1Cl)N2 (single isomer, unassigned) [E392]
Cc1c2c(nn1CC1CCOCC1)OCCCNc1nc(ncc1Cl)N2 [E338, 14-Chloro-4-methyl-5-(oxan-4-ylmethyl)-8-oxa-2,5,6,12,16,17-hexaazatricyclo[11.3.1.0^3,7]heptadeca-1(16),3,6,13(17),14-pentaene]
Cc1c2c(nn1C1CCCOC1)OCCCNc1nc(ncc1Cl)N2 (single isomer, unassigned) [E10, 14-Chloro-4-methyl-5-(oxan-3-yl)-8-oxa-2,5,6,12,16,17-hexaaza tricyclo-[11.3.1.0^3,7]heptadeca-1(16),3,6,13(17),14-pentaene]
Cc1c2c(nn1C1CCOCC1)OCCCNc1cc(ncc1C(F)(F)F)N2 [E125, 4-Methyl-5-(oxan-4-yl)-14-(trifluoromethyl)-8-oxa-2,5,6,12,16-pentaazatricyclo[11.3.1.0^3,7]heptadeca-1(16),3,6,13(17),14-pentaene]
Cc1c2c(nn1C1CC(N3C[C@H]4C[C@@H]3CO4)C1)OCCCNc1nc(ncc1Cl)N2 (stereo partly drawn) [E310, 14-Chloro-4-methyl-5-{3-[(1R,4R)-2-oxa-5-azabicyclo[2.2.1]heptan-5-yl]-cyclobutyl}-8-oxa-2,5,6,12,16,17-hexaazatricyclo [11.3.1.0^3,7]heptadeca-1(16),3,6,13(17),14-pentaene]
Cc1c2c(nn1C1CCOCC1)OCCC(C)Oc1nc(ncc1Cl)N2 (single isomer, unassigned) [E330, 14-Chloro-4,11-dimethyl-5-(oxan-4-yl)-8,12-dioxa-2,5,6,16,17-pentaazatricyclo[11.3.1.0^3,7]heptadeca-1(17), 3,6,13,15-pentaene]
Cc1c2c(nn1C1(C#N)CCOCC1)OCCCNc1nc(ncc1Cl)N2 [E450, 4-{14-chloro-4-methyl-8-oxa-2,5,6,12,16,17-hexaazatricyclo[11.3.1.0^3,7]heptadeca-1(17),3,6,13,15-pentaen-5-yl}oxane-4-carbonitrile]
Cc1c2c(nn1CC1(C)COC1)OCCCNc1nc(ncc1Cl)N2 [E143, 14-Chloro-4-methyl-5-[(3-methyloxetan-3-yl)methyl]-8-oxa-2,5,6,12,16,17-hexaazatricyclo[11.3.1.0^3,7]heptadeca-1(16),3,6, 13(17), 14-pentaene]
Cc1c2c(nn1C1CCOCC1F)OCCCNc1nc(ncc1Cl)N2 (single isomer, unassigned) [E233, 14-Chloro-5-(3-fluorooxan-4-yl)-4-methyl-8-oxa-2,5,6,12,16,17-hexaazatricyclo[11.3.1.0^3,7]heptadeca-1(16),3,6,13 (17),14-pentaene]
Cc1[nH]nc2c1Nc1ncc(Cl)c(n1)NCC(C)CO2 (stereo not drawn) [E431, 14-Chloro-4,10-dimethyl-8-oxa-2,5,6,12,16,17-hexaazatricyclo[11.3.1.0^3,7]heptadeca-1(16),3,6,13(17),14-pentaene]
COC1CNc2cc(ncc2Cl)Nc2c(nn(C3CCOCC3)c2C)OC1 (stereo not drawn) [E342, 14-Chloro-10-methoxy-4-methyl-5-(oxan-4-yl)-8-oxa-2,5,6, 12,16-pentaazatricyclo[11.3.1.0^3,7]heptadeca-1(16),3,6,13(17), 14-pentaene]
Cc1c2c(nn1C1CCCOC1)OCCC(C)Nc1cc(ncc1Cl)N2 (single isomer, unassigned) [E346, 14-Chloro-4,11-dimethyl-5-(oxan-3-yl)-8-oxa-2,5,6,12,16-pentaazatricyclo[11.3.1.0^3,7]heptadeca-1(16),3,6,13 (17),14-pentaene]
Cc1c2c(nn1C1CCC(C)CC1)OCCCNc1nc(ncc1Cl)N2 (single isomer, unassigned) [E257, 14-Chloro-4-methyl-5-(4-methylcyclohexyl)-8-oxa-2,5,6,12,16,17-hexaazatricyclo[11.3.1.0^3,7]heptadeca-1(16),3,6,13 (17),14-pentaene]
COC1CNc2nc(ncc2Cl)Nc2c(nn(C3CCOCC3)c2C)OC1 (stereo not drawn) [E2, 14-Chloro-10-methoxy-4-methyl-5-(oxan-4-yl)-8-oxa-2,5,6,12,16,17-hexaazatricyclo [11.3.1.0^3,7]heptadeca-1(16),3,6,13(17),14-pentaene]
Cc1c2c(nn1CCN1CCOCC1)OCCCNc1nc(ncc1Cl)N2 [E220, 14-Chloro-4-methyl-5-[2-(morpholin-4-yl)ethyl]-8-oxa-2,5,6,12, 16,17-hexaazatricyclo[11.3.1.0^3,7]heptadeca-1(16),3,6,13(17),14-pentaene]
COC1CNc2nc(ncc2Cl)Nc2c(nn(C3CCC(C)CC3)c2C)OC1 (single isomer, unassigned) [E255, 14-Chloro-10-methoxy-4-methyl-5-(4-methylcyclohexyl)-8-oxa-2,5,6,12,16,17-hexaazatricyclo [11.3.1.0^3,7] heptadeca-1(16),3,6,13(17),14-pentaene]
Cc1c2c(nn1C1(C)CCOCC1)OCCCNc1nc(ncc1Cl)N2 [E436, 14-Chloro-4-methyl-5-(4-methyloxan-4-yl)-8-oxa-2,5,6,12,16,17-hexaazatricyclo[11.3.1.0^3,7]heptadeca-1(16),3,6,13(17),14-pentaene]
COCCN1CCC(n2nc3c(c2C)Nc2ncc(Cl)c(n2)NCCCO3)C(F)C1 (single isomer, unassigned) [E59, trans-14-chloro-5-[3-fluoro-1-(2-methoxyethyl)piperidin-4-yl]-4-methyl-8-oxa-2,5,6,12,16,17-hexaazatricyclo[11.3.1.0^3,7]heptadeca 1(16),3,6,13(17),14-pentaene]
Cc1c2c(nn1C1CC(C)OC(C)C1)OCCCNc1nc(ncc1Cl)N2 (single isomer, unassigned) [E200, 14-Chloro-5-(2,6-dimethyloxan-4-yl)-4-methyl-8-oxa-2,5,6,12,16,17-hexaazatricyclo[11.3.1.0^3,7]heptadeca-1(16),3,6,13(17),14-pentaene]
Cc1c2c(nn1C1CCC(N3C[C@@H]4C[C@H]3CO4)CC1)OCCCNc1nc(ncc1Cl)N2 (single isomer, unassigned) [E50]
CC1CCOc2nn(C3CCOCC3)c(Cl)c2Nc2ncc(Cl)c(n2)N1 (stereo not drawn) [E343, 4,14-Dichloro-11-methyl-5-(oxan-4-yl)-8-oxa-2,5,6,12,16,17-hexaazatricyclo[11.3.1.0^3,7]heptadeca-1(16),3,6,13(17),14-pentaene]
